Counter-ions that a name gives are not always drawn. Like-named read-outs stand apart in the source and are kept apart here.
Assays:
[1] = molecular target: T1, SHV-5 β-lactamase (Klebsiella pneumoniae, UniProt P0A3M1); assay: β-lactamase enzyme inhibition assay (nitrocefin substrate), SHV-5; assay type: biochemical
T1 construct: expressed as native untagged proteins; made in house; host or cells: E. coli BL21(DE3)
Method: (§1) Isolation of β-lactamases. For SHV-5, p99 AmpC, KPC-2 and CTX-M15 β-lactamases, E. coli BL21(DE3) bacterial cells carrying expression plasmids (expressed as native untagged proteins) for the individual β-lactamases were grown in 1 L of Superbroth (Teknova Inc. Hollister, Calif.) supplemented with 100 μg/ml kanamycin and 1×5052 (0.5% glycerol, 0.05% glucose and 0.2% α-lactose) at 35° C. for 18-20 hours. Cells were harvested by centrifugation (4,000×g, 4° C., 20 min), and resuspended in 50 ml of 10 mM HEPES pH 7.5 (1/20 of the initial volume). The cells were lysed by sonication (5 pulses of 45 seconds) at 45 W on ice. The lysates were clarified by centrifugation at 10,000×g for 40 minutes at 4° C. Samples were diluted 5-fold in 50 mM sodium acetate pH 5.0, stored overnight at 4° C., after which they were centrifuged at 10,000×g for 30 minutes to clarify, and filtered through 0.45 μm filters. The samples were loaded onto a 5 ml Capto S sepharose cation exchange column (GE Healthcare) pre-equilibrated with 50 mM sodium acetate pH 5.0. The column was washed with 5 column volumes of 50 mM sodium acetate pH 5.0 to wash out unbound protein and a linear gradient of NaCl (0 to 500 mM) was used to elute the protein (over 16 CV) from the column. Fractions were assayed for β-lactamase activity using Centa (Calbiochem, Gibbstown, N.J.) as a reporter β-lactamase substrate for activity in the isolated fractions. Active fractions were pooled, concentrated and further purified by gel filtration chromatography on a Superdex 75 prep grade gel filtration column (GE Healthcare, Piscataway, N.J.) pre-equilibrated in 50 mM Hepes pH 7.5, 150 mM NaCl. Active fractions were pooled concentrated, quantitated by BCA protein determination (Thermo Scientific, Rockford, Ill.), and frozen at −80° C. in 20% glycerol until use.
(§2) β-lactamase Inhibition. To determine the level of inhibition of β-lactamase enzymes, compounds were diluted in PBS at pH 7.0 to yield concentrations between 100 and 0.005 μM in microtiter plates. An equal volume of diluted enzyme stock was added, and the plates were incubated at 37° C. for 10 min. Nitrocefin solution was then dispensed as substrate into each well at a final concentration of 100 μM, and the plates were immediately read with the kinetic program at 486 nm for 10 min on the SPECTRAMAX® Plus^384 (high-throughput microplate spectrophotometer; Molecular Devices Corp., Sunnyvale, Calif.). Maximum rates of metabolism were then compared to those in control wells (without inhibitors), and percentages of enzyme inhibition were calculated for each concentration of inhibitor. The concentration of inhibitor needed to reduce the initial rate of hydrolysis of substrate by 50% (IC50) was calculated as the residual activity of β-lactamase at 486 nm using the SoftMax Pro 5.0 software (Molecular Devices Corp.).
(§3) Using the methodology described above, examples of the current invention were evaluated for their ability to inhibit β-lactamase enzymes. The results of these assays are summarized in Table 2 for representative enzymes across different subtypes (note SHV-5 and CTXM-15 exemplify different subclasses of Ambler Class A Extended Spectrum Beta Lactamases, KPC-2 exemplifies Class A carbapenemases, P99 represents chromosomal Class C AmpC, VIM-2 exemplifies subclass B1 of metallo-β-lactamases, and OXA-23 represents chromosome-encoded Class D oxacillin-hydrolyzing β-lactamases), NT=not tested.

[2] = molecular target: T2, CTX-M15 β-lactamase (Escherichia coli, UniProt Q9EXV5); assay: β-lactamase enzyme inhibition assay (nitrocefin substrate), CTXM-15; assay type: biochemical
T2 construct: expressed as native untagged proteins; made in house; host or cells: E. coli BL21(DE3)
T2 sequence (Q9EXV5 entry or part of it): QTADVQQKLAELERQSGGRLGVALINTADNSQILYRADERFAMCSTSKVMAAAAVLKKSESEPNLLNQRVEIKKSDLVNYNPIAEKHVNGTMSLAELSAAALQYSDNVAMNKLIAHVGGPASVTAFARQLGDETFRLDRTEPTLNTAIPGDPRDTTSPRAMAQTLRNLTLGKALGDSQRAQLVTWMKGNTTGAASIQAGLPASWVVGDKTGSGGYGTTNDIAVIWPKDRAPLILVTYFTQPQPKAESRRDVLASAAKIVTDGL
Method: as §1, §2, §3

[3] = molecular target: T3, p99 AmpC β-lactamase (Enterobacter cloacae, UniProt P05364); assay: β-lactamase enzyme inhibition assay (nitrocefin substrate), P99 AmpC; assay type: biochemical; details: nitrocefin 100 μM, 37° C., PBS pH 7.0; read-out: P99 AmpC IC50
T3 construct: expressed as native untagged proteins; made in house; host or cells: E. coli BL21(DE3)
T3 sequence (P05364 21-381): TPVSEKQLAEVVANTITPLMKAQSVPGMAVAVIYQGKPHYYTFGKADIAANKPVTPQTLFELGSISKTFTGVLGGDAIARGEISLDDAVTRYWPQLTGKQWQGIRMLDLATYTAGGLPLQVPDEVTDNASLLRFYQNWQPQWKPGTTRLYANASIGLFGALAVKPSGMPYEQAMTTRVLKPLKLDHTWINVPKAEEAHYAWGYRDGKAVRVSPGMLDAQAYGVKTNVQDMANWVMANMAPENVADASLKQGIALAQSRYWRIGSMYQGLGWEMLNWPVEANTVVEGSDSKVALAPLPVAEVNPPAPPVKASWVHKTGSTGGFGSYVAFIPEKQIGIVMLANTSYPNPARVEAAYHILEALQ
Method: as §1, §2, §3

[4] = molecular target: T4, KPC-2 β-lactamase (Klebsiella pneumoniae, UniProt Q9F663); assay: β-lactamase enzyme inhibition assay (nitrocefin substrate), KPC-2; assay type: biochemical
T4 construct: expressed as native untagged proteins; made in house; host or cells: E. coli BL21(DE3)
T4 sequence (Q9F663 25-293 limits assumed): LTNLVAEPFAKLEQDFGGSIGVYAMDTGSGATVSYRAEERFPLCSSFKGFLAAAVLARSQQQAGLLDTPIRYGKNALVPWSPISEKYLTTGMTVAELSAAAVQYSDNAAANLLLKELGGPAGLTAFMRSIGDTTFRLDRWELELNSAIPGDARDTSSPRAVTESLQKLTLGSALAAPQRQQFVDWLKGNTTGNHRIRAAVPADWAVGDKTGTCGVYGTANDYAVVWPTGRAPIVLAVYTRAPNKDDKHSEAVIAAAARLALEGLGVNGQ
Method: as §1, §2, §3

[5] = system: E. coli expressing the Class A ESBL SHV-5; assay: In vitro antibacterial assay of β-lactamase inhibition (broth microdilution MIC), E. coli SHV-5; assay type: cell-based; details: for MIC of example compound, E. coli SHV-5: in presence of Ceftazidime 8 μg/ml (Examples 1-56); for MIC: Escherichia coli, read-out: MIC alone, E. coli SHV-5
From the text: (§4) To determine the ability of test compounds to potentiate the inhibition of the growth of bacterial strains producing beta-lactamase enzymes, classic cell based screening assays were employed. Five bacteria strains producing beta-lactamase enzymes were used: K. pneumoniae expressing the Class A Extended Spectrum Beta-Lactamase (ESBL) CTX-M-15, E. coli expressing the Class A ESBL SHV-5, E. cloacae expressing the Class C P99+, K. pneumoniae expressing the Class A carbapenemase KPC-2, and P. aeruginosa expressing the Class B metallo β-lactamase VIM-2. In order to evaluate the ability of test compounds to inhibit beta-lactamase activity, Applicants used a modification of the broth microdilution assay. The assay was conducted in Cation Adjusted Mueller Hinton Broth (CAMHB, BD # 212322, BD Diagnostic Systems, Sparks, Md.). Bacteria strains were grown for 3-5 hours in CAMBH broth. All five strains were grown in presence of 50 μg/mL ampicillin to ensure resistance is maintained. In the meantime, test compounds were diluted in DMSO to a 0.1 mg/mL stock. The compounds were added to a microtiter plate and were diluted in 2-fold serial dilutions in CAMHB in a final concentration range of 8 μg/mL to 0.015 μg/ml. […] Each of these compound plates are made in quadruplicate, one for each bacteria strain. In addition to the titration of test compounds the MICs of a panel of cephalosporins is also tested to ensure the strains are behaving consistently from test to test. Once the test compound and cephalosporin are added the plates can be inoculated. Inocula are conducted according to CLSI broth microdilution method. After inoculation the plates are incubated for 16-20 hours at 37° C. then the Minimal Inhibitory Concentration (MIC) of the test compound is determined visually.
(§5) Using the methodology described above, examples of the current invention were evaluated for their ability to inhibit the growth of β-lactamase producing bacteria in the presence of a β-lactam antibiotic.

[6] = system: K. pneumoniae expressing the Class A Extended Spectrum Beta-Lactamase (ESBL) CTX-M-15; assay: In vitro antibacterial assay of β-lactamase inhibition (broth microdilution MIC), K. pneumoniae CTX-M-15; assay type: cell-based; details: for MIC of example compound, K. pneumoniae CTX-M-15: in presence of Ceftazidime 8 μg/ml (Examples 1-56); for MIC: Klebsiella pneumoniae, read-out: MIC alone, K. pneumoniae CTX-M-15
From the text: as §4, §5

[7] = system: E. cloacae expressing the Class C P99+; assay: In vitro antibacterial assay of β-lactamase inhibition (broth microdilution MIC), E. cloacae P99+; assay type: cell-based; details: for MIC of example compound, E. cloacae P99+: in presence of Ceftazidime 8 μg/ml (Examples 1-56); for MIC: Enterobacter cloacae, read-out: MIC alone, E. cloacae P99+ AmpC
From the text: as §4, §5

[8] = system: K. pneumoniae expressing the Class A carbapenemase KPC-2; assay: microbe, parasite or virus in culture; assay type: cell-based; details: for MIC of example compound, K. pneumoniae KPC-2: in presence of Ceftazidime 8 μg/ml (Examples 1-56); for MIC: Klebsiella pneumoniae, read-out: MIC alone, K. pneumoniae KPC-2
From the text: as §4, §5

[9] = system: P. aeruginosa expressing the Class B metallo β-lactamase VIM-2; assay: In vitro antibacterial assay of β-lactamase inhibition (broth microdilution MIC), P. aeruginosa VIM-2; assay type: cell-based; details: for MIC of example compound, P. aeruginosa VIM-2: in presence of Ceftazidime 16 μg/mL (Examples 1-56); for MIC: Pseudomonas aeruginosa, read-out: MIC alone, P. aeruginosa VIM-2
From the text: as §4, §5

T1 sequence (P0A3M1 22-286): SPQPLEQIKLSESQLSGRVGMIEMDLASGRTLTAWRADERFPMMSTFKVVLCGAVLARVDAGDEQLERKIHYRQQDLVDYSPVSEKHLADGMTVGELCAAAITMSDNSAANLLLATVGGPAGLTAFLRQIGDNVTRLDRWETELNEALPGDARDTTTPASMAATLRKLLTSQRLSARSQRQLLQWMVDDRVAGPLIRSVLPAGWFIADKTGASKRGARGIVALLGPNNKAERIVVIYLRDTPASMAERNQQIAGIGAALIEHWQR

O=C(N[C@@H](Cc1cccc(C(=O)O)c1O)B(O)O)c1cccc(CNc2cccnc2)c1 [Example 26, (1R)-[3-(pyridin-3-ylaminomethyl)-benzoylamino]-(3-carboxy-2hydroxy)benzyl-methylboronic acid formate]
IC50 [1]: 94 nM
IC50 [2]: 1 nM
IC50 [3]: 0.4 nM
IC50 [4]: 11 nM
MIC of example compound, E. coli SHV-5 [5]: >8 µg/mL
MIC of example compound, K. pneumoniae CTX-M-15 [6]: 4 µg/mL
MIC of example compound, E. cloacae P99+ [7]: 2 µg/mL
MIC of example compound, K. pneumoniae KPC-2 [8]: 0.5 µg/mL
MIC of example compound, P. aeruginosa VIM-2 [9]: >8 µg/mL

O=C(N[C@@H](Cc1cccc(C(=O)O)c1O)B(O)O)c1cccc(CN(CCO)CCO)c1 [Example 23, (1R)-(3-{[bis-(2-hydroxy-ethyl)-amino]-methyl}-benzoylamino)-(3-carboxy-2-hydroxy)benzyl-methylboronic acid formate]
IC50 [1]: 17 nM
IC50 [2]: 2 nM
IC50 [3]: 0.9 nM
IC50 [4]: 8.1 nM
MIC of example compound, E. coli SHV-5 [5]: 8 µg/mL
MIC of example compound, K. pneumoniae CTX-M-15 [6]: 1 µg/mL
MIC of example compound, E. cloacae P99+ [7]: 2 µg/mL
MIC of example compound, K. pneumoniae KPC-2 [8]: 0.12 µg/mL
MIC of example compound, P. aeruginosa VIM-2 [9]: >8 µg/mL

Cl.O=C(N[C@@H](Cc1cccc(C(=O)O)c1O)B(O)O)c1ccc(CNCCO)cc1 [Example 16, (1R)-[4-(2-hydroxy-ethylamino)-methyl]-benzoylamino-(3-carboxy-2-hydroxy)benzyl-methyl boronic acid hydrochloride]
IC50 [1]: > 1000 nM
IC50 [2]: 5 nM
IC50 [3]: 6 nM
IC50 [4]: 5 nM
MIC of example compound, E. coli SHV-5 [5]: 8 µg/mL
MIC of example compound, K. pneumoniae CTX-M-15 [6]: 1 µg/mL
MIC of example compound, E. cloacae P99+ [7]: 0.25 µg/mL
MIC of example compound, K. pneumoniae KPC-2 [8]: 0.03 µg/mL
MIC of example compound, P. aeruginosa VIM-2 [9]: 4 µg/mL

(1R)-[4-(1-amino-cyclopropyl)]-benzoylamino]-(3-carboxy-2-hydroxy)benzyl-methylboronic acid formate [Example 22]
IC50 ([1]; nitrocefin 100 μM, 37° C., PBS pH 7.0, read-out: SHV-5 IC50): > 1000 nM
IC50 ([2]; nitrocefin 100 μM, 37° C., PBS pH 7.0, read-out: CTXM-15 IC50): 0.6 nM
IC50 [3]: 34 nM
IC50 ([4]; nitrocefin 100 μM, 37° C., PBS pH 7.0, read-out: KPC-2 IC50): 5 nM
MIC of example compound, E. coli SHV-5 [5]: 8 µg/mL
MIC of example compound, K. pneumoniae CTX-M-15 [6]: 2 µg/mL
MIC of example compound, E. cloacae P99+ [7]: 0.5 µg/mL
MIC of example compound, K. pneumoniae KPC-2 [8]: 0.007 µg/mL
MIC of example compound, P. aeruginosa VIM-2 [9]: >8 µg/mL

CN(C)Cc1cccc(C(=O)N[C@@H](Cc2cccc(C(=O)O)c2O)B(O)O)c1 [Example 27, (1R)-(3-dimethylaminomethyl-benzoylamino)-(3-carboxy-2-hydroxy)benzyl-methylboronic acid formate]
IC50 [1]: 312 nM
IC50 [2]: 3 nM
IC50 [3]: 1.4 nM
IC50 [4]: 14 nM
MIC of example compound, E. coli SHV-5 [5]: >8 µg/mL
MIC of example compound, K. pneumoniae CTX-M-15 [6]: 1 µg/mL
MIC of example compound, E. cloacae P99+ [7]: 0.5 µg/mL
MIC of example compound, K. pneumoniae KPC-2 [8]: 0.03 µg/mL
MIC of example compound, P. aeruginosa VIM-2 [9]: >8 µg/mL

CCN1CCN(C(=O)N[C@@H](C(=O)N[C@@H]2C(=O)N3[C@@H]2SC(C)(C)[C@@H]3C(=O)O)c2ccccc2)C(=O)C1=O [Pip, Piperacillin, reference compound]
MIC [5]: > 128 µg/mL
MIC [6]: > 128 µg/mL
MIC [7]: > 128 µg/mL
MIC [8]: > 128 µg/mL
MIC [9]: > 128 µg/mL

CC(C)(O/N=C(\C(=O)N[C@@H]1C(=O)N2C(C(=O)[O-])=C(C[n+]3ccccc3)CS[C@H]12)c1csc(N)n1)C(=O)O [Ceftazidime, reference compound]
MIC [5]: > 1020 µg/mL
MIC [6]: 128 µg/mL
MIC [7]: 128 µg/mL
MIC [8]: 32 µg/mL
MIC [9]: 128 µg/mL

Cl.O=C(N[C@@H](Cc1cccc(C(=O)O)c1O)B(O)O)c1ccc(CNCc2cccnc2)cc1 [Example 17]
MIC of example compound, E. coli SHV-5 [5]: >8 µg/mL
MIC of example compound, K. pneumoniae CTX-M-15 [6]: 2 µg/mL
MIC of example compound, E. cloacae P99+ [7]: 1 µg/mL
MIC of example compound, K. pneumoniae KPC-2 [8]: 0.12 µg/mL
MIC of example compound, P. aeruginosa VIM-2 [9]: >8 µg/mL

From patent publication US20100292185A1, “BETA-LACTAMASE INHIBITORS” (priority 2009, published 2010)
